In patent US8603737B2, “Methods for identifying HCV protease inhibitors” (priority 2008, dated 2013):

Experiments:
[1] = target: T1, D168V mutant of the HCV NS3/4A 1b protease enzyme (Hepatitis C virus genotype 1b, UniProt P26663, D1194V); assay: HCV protease FRET assay, D168V mutant; format: biochemical; settings: read-out: Inhibition, HCV D168V (IC50)
T1 construct: 10× stocks of NS3/4A protease enzyme from Bioenza; purchased Bioenza (Mountain View, Calif.)
Method: HCV Protease FRET Assay for Mutated NS3/4A 1b Enzymes
The protocol is a modified FRET-based assay (v—02) from In Vitro Resistance Studies of HCV Serine Protease Inhibitors, 2004, JBC, vol. 279, No. 17, pp 17508-17514. Inherent potency of compounds was assessed against A156S, A156T, D168A, and D168V mutants of the HCV NS3/4A 1b protease enzyme as follows:
Assay buffer: 2% CHAPS, 50 mM Tris pH 7.5, 50% glycerol, 2 μM M-2235 (Bachem) substrate. In a 50 μl reaction, add 49 μl assay buffer, 1 μl (1 U) HCV serine protease (Bioenza). Incubate 20 minutes at room temperature. The plate was read at either 350/460 nm (excitation/emission) on a fluorescent micro-plate reader or monitored at one-minute intervals to achieve the kinetic curve.
10× stocks of NS3/4A protease enzyme from Bioenza (Mountain View, Calif.) and 1.13×5-FAM/QXL™520 FRET peptide substrate from Anaspec (San Jose, Calif.) were prepared in 50 mM HEPES, pH 7.8, 100 mM NaCl, 5 mM DTT and 20% glycerol. 5 μL of each enzyme were pre-incubated in a Corning (#3573) 384-well, black, non-treated microtiter plate (Corning, N.Y.) for 30 min at 25° C. with a 0.5 μL volume of 50% DMSO and serially diluted compounds prepared in 50% DMSO. Protease reactions were started with the addition of 45 μL of the FRET substrate and monitored for 120 minutes at λex487/λem514 through Quad^4 monochromoters in a Synergy^4 plate reader from BioTek (Winooski, Vt.). […] Initial velocity (0 minutes to 30+ minutes) from each reaction was determined from the slope of a plot of relative fluorescence units vs time (minutes) and then plotted against inhibitor concentration to estimate IC50 from log[Inhibitor] vs Response, Variable Slope model in GraphPad Prism from GraphPad Software (San Diego, Calif.). […]
The following protocol was used to generate “apparent” IC50 (IC50—APP)) values as depicted in Table 3, below. […] Protease reactions were immediately started after enzyme addition with the addition of 45 μL of the FRET substrate and monitored for 60-90 minutes at λex485/λem520 in a Synergy^4 plate reader from BioTek (Winooski, Vt.). […]

[2] = target: T2, NS3 protease self-cleavage in Huh-7-Luc-Neo-ET cells (Hepatitis C virus genotype 1b, UniProt Q9WMX2, E1202G/T1280I); format: cell-based, HCV; settings: wild type replicon cells
T2 construct: host or cells: Huh-7-Luc-Neo-ET replicon cells (human hepatoma Huh7)
Method: Inhibition of Protease Self Cleavage
The remaining wells were rinsed 2× with PBS then fed with Replicon Media and returned to the incubator.
(§1) Cell lysates were separated by SDS-Page (4-20%) and transferred to Immobilon-P PVDF membrane (Millipore Corporation, MA) and blotted with polyclonal anti NS3 antibody (Bioenza, Calif.). Blots were scanned on an Odyssey infrared scanner from Licor and the FL band and cleavage products were quantified separately using the Licor software provided with the scanner. The cleavage product was calculated as a percentage of the total NS3 in each sample and then normalized to the DMSO control so that the DMSO control reflects 100% activity.

[3] = target: T3, NS3 protease R155K self-cleavage in modified replicon system (Hepatitis C virus genotype 1b, UniProt Q9WMX2, E1202G/R1181K/T1280I); assay: Inhibition of protease self cleavage in R155K modified replicon system (washout); format: cell-based, HCV; settings: R155K modified replicon system (FIG. 6)
T3 construct: expressed in transfected cells; host or cells: replicon cells carrying the R155K-mutated pFK-I389-luc-ubi-neo-NS3-3'ET replicon
Method: Constructs containing clinically relevant mutations were generated by performing site-directed mutagenesis on the pFK-1389-luc-ubi-neo-NS3-3′ET plasmid (ReBLikon Gmbh (Heidelberg, Germany)). using the QuickChange II Site-Directed Mutagenesis Kit (Stratagene, La Jolla, Calif.) according to manufacturer's directions and with the primers described in Table 2.
Huh-7-Luc-Neo-ET cells were plated in Replicon Assay Medium (RPMI supplemented with 5% FBS, 1× non-essential amino acids and pen/strep) at a density of 1×10^5 cells/well in 12 well plates. Eight hours later the media was removed and replaced with 1 mL media containing test compound (5 wells per compound) and 0.02% DMSO and the cells were returned to the incubator overnight. […]
as §1, with “activity. […]” for “activity.”

[4] = system: HCV RNA replicon in cell line ET (luc-ubi-neo/ET), human Huh7 hepatoma; assay: Luciferase reporter replicon assay (Example 5, Method C); format: cell-based; settings: Hepatitis C virus, Huh-7, 72 hr, EC90, read-out: Inhibition, Replicon, EC90 value
Method: Method C: Luciferase Reporter Assay Protocol
The compounds were assayed to evaluate the antiviral activity and cytotoxicity of compounds using replicon-derived luciferase activity. This assay used the cell line ET (luc-ubi-neo/ET), which is a human Huh7 hepatoma cell line that contains an HCV RNA replicon with a stable luciferase (Luc) reporter and three cell culture-adaptive mutations. The ET cell line was grown in a 5% CO2 incubator at 37° C. in Dulbecco's modified essential media (DMEM), supplemented with 2 mM L-glutamine (“1%”), nonessential amino acids, 100 U of penicillin/mL, 100 μg of streptomycin/mL (“1%”), 10% fetal bovine serum and 400 μg/mL G418 (Geneticin; Invitrogen).
All cell culture reagents were obtained from Invitrogen (Carlsbad). Cells were trypsinized (1% trypsin:EDTA) and plated out at 5×10^3 cells/well in white 96-well assay plates (Costar) dedicated to cell number (cytotoxicity) or antiviral activity assessments. Test compounds were added at six 3-fold serial dilutions each and the assay was run in DMEM, 5% FBS, 1% pen-strep, 1% glutamine, 1% non essential amino acid. Human interferon alpha-2b (PBL Biolabs, New Brunswick, N.J.) was included in each run as a positive control compound. Cells were processed 72 hr post test compound addition when the cells were still subconfluent. Antiviral activity was measured by analyzing replicon-derived luciferase activity using the Steady-Glo Luciferase Assay System (Promega, Madison, Wis.) according to manufacturer's instruction. The number of cells in each well was determined by Cell Titer Blue Assay (Promega). Compound profile was derived by calculating applicable EC50 (effective concentration inhibiting virus replication by 50%), EC90 (effective concentration inhibiting virus replication by 90%), IC50 (concentration decreasing cell viability by 50%) and SI50 (selective index: […]) values.

[5] = system: HCV NS3/4A genotypes 1a, 1b, 2a, and 3a; assay: Mass spectrometric analysis of covalent modification, NS3/4A genotypes; format: binding; settings: 3 hours reaction, each genotype 1a, 10-fold excess of compound
Method: Mass spectrometric analysis of HCV wild type or HCV variants (C159S, A156S, R155K, D168A, A156T, and D168V) in the presence of test compound was performed. 100 pmols of HCV wild type (Bioenza Calif.) was incubated with test compound for 1 hr and 3 hrs at 10-fold excess of test compound to protein. 1 μL aliquots of the samples (total volume of 4.24 μL) were diluted with 10 μL of 0.1% TFA prior to micro C4 ZipTipping directly onto the MALDI target using Sinapinic acid as the desorption matrix (10 mg/mL in 0.1% TFA:Acetonitrile 50:50). Analyses were performed on a Shimadzu Biotech Axima TOF (Shimadzu Instruments) matrix-assisted-laser desorption/ionization Time-of-Flight (MALDI-TOF) mass spectrometer. The same procedure was carried out on 100 pmols of HCV C159S mutant of HCV protease for 3 hrs at 10-fold excess of test compound to protein.
In addition, mass spectrometric analysis of HCV NS3/4A genotypes 1a, 1b, 2a, and 3a in the presence of test compound was performed using the above protocol.

C=CC(=O)N[C@H](C)C(=O)N1C[C@H](Oc2cc(-c3ccccc3)nc3cc(OC)ccc23)C[C@H]1C(=O)N[C@]1(C(=O)NS(=O)(=O)C2CC2)C[C@H]1C=C [Compound 7]
IC50 [1]: 100 to 1000 nM | inhibition of NS3 self-cleavage after compound removal ([2]; up to 24 hours after compound removal (FIG. 5)): virtually complete inhibition | duration of inhibition of mutant protease activity after compound removal [3]: at least 24 hours

CCC[C@H](NC(=O)[C@@H]1[C@H]2CCC[C@H]2CN1C(=O)[C@@H](NC(=O)[C@@H](NC(=O)c1cnccn1)C1CCCCC1)C(C)(C)C)C(=O)C(=O)NC1CC1 [Compound 1, reference compound]
return of NS3 self-cleavage activity after drug removal ([2]; 16 hours incubation, in as little as 4 hours after drug removal): virtually complete return of activity

C=C[C@@H]1C[C@]1(NC(=O)[C@@H]1C[C@@H]2CN1C(=O)[C@H](CCC(=O)C=C(C)C)NC(=O)OCCC/C=C/c1ccc3ccnc(c3c1)O2)C(=O)NS(=O)(=O)C1CC1 [Compound 6]
EC90 [4]: < 10 nM

C=C[C@@H]1C[C@]1(NC(=O)[C@@H]1C[C@@H](Oc2nccc3cc(OC)ccc23)CN1C(=O)[C@H](CCC(=O)C=C(C)C)NC(=O)OC(C)(C)C)C(=O)NS(=O)(=O)C1CC1 [Compound 5]
covalent modification of HCV NS3/4A (mass spectrometry) [5]: measurable covalent modification
